Data set [1] deals with N2a. As to the kind of experiment: Neuroprotective activity against oxygen-glucose deprivation/reperfusion injury in mouse Neuro2a cells assessed as cell viability at 50 uM added 4 hrs prior to oxygen-glucose deprivation induction by MTT assay (Rvb 61 +/- 5%). The class given is functional. As to conditions: read-out: Activity.
The nature of data set [2]: Stability in 50% diluted pooled rat serum assessed parent compound remaining at 1.5 mg measured after 24 hrs by HPLC analysis. The class given is ADME, cell-free. The conditions noted are these: read-out: Stability.
A short description of data set [3]: Stability in 50% diluted pooled rat serum assessed compound degradation at 1.5 mg measured within 2 hrs by HPLC analysis. The class given is ADME, cell-free.
Data set [4] relates to N2a. Put plainly: Neuroprotective activity against oxygen-glucose deprivation/reperfusion injury in mouse Neuro2a cells assessed as cell viability at 6.25 uM added 4 hrs prior to oxygen-glucose deprivation induction by MTT assay (Rvb 61 +/- 5%). The class given is functional. The conditions noted are these: read-out: Activity. (In general: Tetrazolium dyes change colour on reduction, which living cells bring about.)

Regarding `CC(C)C[C@H](N)C(=O)N[C@H](CC(C)C)C(=O)N[C@@H](CO)C(=O)NCC(=O)N[C@H](C(=O)O)C(C)C`, in the data set on N2a [1], the viability at 50 µM came out at 86%. Also, the remaining at 24 h in data set [2] stood at 65%.

Regarding `CC(C)C[C@H](N)C(=O)N[C@H](CC(C)C)C(=O)N[C@@H](CO)C(=O)NCC(=O)N[C@H](C(=O)N[C@H](CC(C)C)C(=O)NCC(=O)NCC(=O)O)C(C)C`, the viability at 50 µM in the data set on N2a [1] was determined as 82%. Moreover, in data set [2], the remaining at 24 h was 65%.

Regarding `CC(C)C[C@H](NC(=O)[C@@H](NC(=O)CNC(=O)[C@H](CO)NC(=O)[C@H](CC(C)C)NC(=O)[C@@H](N)CC(C)C)C(C)C)C(=O)NCC(=O)NCC(=O)O`, the Stability result in data set [3] was “Stable”.

On to `CC(C)C[C@H](NC(=O)[C@@H](NC(=O)CNC(=O)[C@H](CO)NC(=O)[C@H](CC(C)C)NC(=O)[C@@H](N)CC(C)C)C(C)C)C(=O)NCC(=O)O`, for which, in data set [3], the Stability entry is “Stable”.

For the compound `CC(C)C[C@H](N)C(=O)N[C@H](CC(C)C)C(=O)N[C@@H](CO)C(=O)NCC(=O)N[C@H](C(=O)N[C@H](CC(C)C)C(=O)NCC(=O)O)C(C)C`, the viability at 6.25 µM in the data set with N2a [4] amounted to 79%. Besides, the remaining at 24 h in data set [2] turned out to be 65%.

With `CC(C)C[C@H](NC(=O)[C@@H](N)CC(C)C)C(=O)N[C@@H](CO)C(=O)NCC(=O)N[C@H](C(=O)O)C(C)C`, the Stability result in data set [3] is “Stable”.

For the compound `CC1=NN(c2ccccc2)C(=O)C1` [EDARAVONE], in the data set with N2a [1], the viability at 50 µM came to 90%.

The record behind these values is ChEMBL document CHEMBL4387789, “Linear Peptides Containing d-Leucine with Neuroprotective Activities from the Leech Whitmania pigra Whitman” (J Nat Prod, 2019).
